Assay results taken from a melting point compilation (Tetko et al.; mined from patent text by program, amines drawn as free bases though some values may be those of a salt).

Point of comparison: `COc1ccc(C2=NNC(=O)[C@H]3CC=CC[C@@H]23)c2c1OC(C)(C)C2` (relative stereo), melting point 242 °C. Against it:
- CN1C(=O)CCC2(C)C3CCC4(C)C(OCC(N)=O)CCC4C3CCC12 (centres undefined) — lower, 222 to 225 °C
- O=C(O)c1ccc2c(c1)nc(-c1ccc(Oc3cccc(OCc4ccncc4)c3)cc1)n2C1CCCCC1 — lower, 235 to 237 °C
- CCn1cccc1C(=O)C(C#N)C(=O)Nc1ccccc1 (centres undefined) — lower, 77 to 79 °C
- CCCn1nc(C#N)cc1CC(C)(C)NC(=O)OC(C)(C)C — lower, 115 to 116 °C
- Cc1cccc(-c2nc3cccnn3c2-c2ccnc(NC(=O)C3CC3)c2)c1 — lower, 203 to 204 °C
- Nc1c(F)c(N2CCC(n3cncn3)C2)c(F)c2c1c(=O)c(C(=O)O)cn2C1CC1 (centres undefined) — lower, 240 °C
- CC(CCCN(C)c1ccccc1)NCC(O)c1ccc(O)c(C(N)=O)c1 (centres undefined) — lower, 155 to 157 °C
- CCCc1nc(C)cn1-c1cc(F)ccc1N — lower, 38 to 42 °C
- CC1(C)OC(=O)Nc2ccc(-c3cncc(C#N)c3)cc21 — higher, 290 to 291 °C
- CSc1nc(=O)n(C)cc1F — lower, 154 °C
- CC(=O)SC(C)C(Cc1ccccc1)C(=O)Nc1cccc(C(=O)O)c1 (centres undefined) — lower, 180 to 182 °C
- Clc1nccc2scc(Br)c12 — lower, 153 to 155 °C
- COc1cc(OC)cc(-c2oc3ncnc(Cl)c3c2-c2ccccc2)c1 — lower, 138 to 140 °C
- CC1(C)CCc2ccc(O)cc21 — lower, 84.5 to 86.5 °C
- CN(C)CCN(C(=O)c1ccc([N+](=O)[O-])cc1Br)c1ccnc2cc3c(cc12)OCO3 — lower, 111 to 112 °C
- CCCSc1cc(C(=O)O)cc(S(N)(=O)=O)c1Oc1ccccc1 — lower, 209 to 210 °C
- CON(C)C(=O)CCc1oc(-n2ccnc2C)nc1-c1ccc(Cl)cc1 — lower, 116 to 117 °C
- COc1ccc(C(=C/C=C/C(=O)NCCCc2cccc3ccncc23)c2ccc(OC)cc2)cc1 — lower, 115 to 118 °C
- O=C(O)CCSC(C(=O)O)c1ccccc1CCCCCCCCc1ccccc1 (centres undefined) — lower, 86 to 87 °C
- O=C(Nc1cccc(-c2ccnc3c(C(=O)c4cccs4)cnn23)c1)c1ccncc1 — lower, 220 to 222 °C
- CC(=C1SC(=O)NC1=O)c1ccc(OCCOc2c(-c3ccc(F)c(F)c3)n(C)c3cc(F)ccc3c2=O)cc1 — higher, 270 to 272 °C
- O=C(O)c1cccc(-c2cc(-c3ccc(Cl)cc3)on2)c1 — higher, 293 to 295 °C
- CCC1(CC)C(=O)N(C(C)(C)C)CC(C)(C)N1OC(=O)C(c1ccccc1)c1ccccc1 — lower, 109 °C
- COc1ccc(I)cc1CN — lower, 95 to 97 °C
- O=C(Nc1cc2nc(-c3ccc(C(=O)C4CCCCC4)cc3)[nH]c2cn1)c1ccccn1 — higher, 258 °C
- CC(C)Cc1ccc(CCCCc2cc3c(s2)NC(=S)CN=C3c2ccccc2Cl)cc1 — lower, 133 to 135 °C
- Cc1ccc(C(O)CN2c3nc(-c4ccncc4)cc(=O)n3CCC2c2ccccc2)cc1 (centres undefined) — lower, 198 to 200 °C
- COc1cc(C=O)c([N+](=O)[O-])cc1OCCCl — lower, 148 to 150 °C
- CCCc1c(OCCCCCCc2ccc(CCCCC(=O)O)c(CCC(=O)O)c2)ccc2c1OCCC2=O — lower, 108 to 109 °C
- CCC(=Cc1ccc(OCCCC(=O)O)c(Cl)c1Cl)[N+](=O)[O-] — lower, 155 to 156 °C
- Cc1ccc(CSC(=S)N2Cc3[nH]c4ccccc4c3CC2C(=O)O)cc1 (centres undefined) — lower, 188 to 190 °C
- COC(=O)c1ccncc1C(=O)c1ccc(-n2ccnc2)cc1 — lower, 125 to 128 °C
- CCOC(=O)C1=CN(CC)c2cc(C#N)c(F)cc2C1 — lower, 205 to 207 °C
- CC(C)(C)OC(=O)N1CC[C@@H](C(=O)N[C@@H](CC(=O)OCc2ccccc2)C(=O)N[C@@H](Cc2ccccc2)C(=O)OCc2ccccc2)C1 — lower, 84 to 85 °C
- ClCc1nnc2n1-c1ccccc1C(c1ccccc1Cl)=NC2 — lower, 186 to 188 °C
- COCCCCCCCCCCCC(=O)Nc1cccc(C(=O)O)c1 — lower, 169 to 171 °C
- CNC(=O)COC(=O)N1CCN(CCCc2cccc(-c3cccc(Cl)c3)c2)CC1 — lower, 82 to 85 °C
- CCNC1=NN(c2ccc(Cl)cc2)CC1C (centres undefined) — lower, 63 to 64 °C
- CCOC(=O)c1cc(C=O)ccc1O — lower, 67 to 69 °C
- O=S(=O)(Oc1cccc(O)c1)c1ccc(Cl)c(Cl)c1 — lower, 107 to 110 °C
- O=C(NCC(F)(F)F)c1ccccc1C(c1ccc(O)cc1)c1ccc(O)cc1 — lower, 165 to 166 °C
- COc1ccc(N2CCN(Cc3n[nH]c4c3Cc3ccccc3-4)CC2)cc1 — lower, 176 to 178 °C
- Oc1ccc(N2CCN(Cc3nc4ccccc4s3)CC2)cc1 — lower, 175 to 176 °C
- CC(=O)c1ccc2c(c1)NC(NC(C)C)=NS2(=O)=O — higher, 305 to 308 °C
- O=C(O)Cc1ccc(OCc2ccccc2C(=O)O)cc1 — lower, 171 to 174 °C
- COc1ccc2c(c1)C(C)CCC2=O (centres undefined) — lower, 57.5 to 58.5 °C
- CCOC(=O)C=Cc1cnn2c(N(C)c3ccccc3)ncnc12 — lower, 139 °C
- COC(=O)C1=C(C)Nc2c(c(-c3ccccc3)nn2-c2ccccc2)C1c1cccc([N+](=O)[O-])c1 (centres undefined) — lower, 186 to 189 °C
- O=C(O)c1cnc2cc(F)c(F)cc2c1 — higher, 290 °C
- NC(=O)c1c(-c2cccc(F)c2)c(Br)n2c1CNCC2 — lower, 216 to 218 °C
- COC(C)(CCCCCC(C)(C)O)c1cccc(C=Cc2cc(O)cc(O)c2)c1 (centres undefined) — lower, 65 to 75 °C
- COc1ccccc1Oc1c(O)nc(SC)nc1O — lower, 206 to 210 °C
- O=C(CO)c1c[nH]c2cc(OCc3ccccc3)ccc12 — lower, 194 to 195 °C
- CCCCCCCCCCCCSC(=S)SSC(=S)SCCCCCCCCCCCC — lower, 33 to 35 °C
- ClCc1coc(-c2ccc(Br)o2)n1 — lower, 90 to 92 °C
- Cc1cc(-c2ccc(C(F)(F)F)cc2)nc(-c2ccnc(-c3ccc(S(N)(=O)=O)s3)c2)n1 — higher, 264 °C
- COC(=O)NC(=O)Nc1nc2ccccc2s1 — higher, 338 to 340 °C
- Cn1cc(-c2cccc(Br)c2)c(=O)c(-c2ccc(Cl)c(Cl)c2)c1 — lower, 152 to 154 °C
- O=C(O)c1cc2c(s1)-c1cc(F)ccc1CC2 — not separable, 240 to 242 °C
- CS[C@@H]1CC(=O)N(Cc2ccc(Oc3ccc(F)cc3)nc2)C1 — lower, 94 to 95 °C
- COc1cc(C(O)Cc2c(C)cncc2C)nnc1OC (centres undefined) — lower, 217 to 218 °C
- O=C(O)COc1ccc(SCc2ccc(OCc3cc(Cl)ccc3Cl)cc2)c2c1CCC2 — lower, 158 to 160 °C
- CCOC(=O)c1c(C)cc2c(=O)n(-c3ccccc3C(=O)O)cnc2c1C — lower, 207 to 210 °C
- Cc1cc(CCCCCCCCOc2ccc(C3=NCCO3)cc2Cl)on1 — lower, 63 to 64 °C
- CCOC(=O)c1c(-c2ccccc2C)c2cc3c(cc2[nH]c1=O)CCC3 — higher, 296 to 298 °C
- CC1Cc2c(c3cccnc3n(-c3ccccc3)c2=O)O1 (centres undefined) — lower, 223 to 224 °C
- [O-][N+](=Cc1ccc(OCc2ccccc2)cc1)C1CCCC1 — lower, 115 °C
- CCOC(=O)c1cnc(NN)nc1C(F)(F)F — lower, 89 to 90 °C
- CCCCCCCCOc1ccc(-c2ccc(C(C)OC(=O)CCC)cc2)cc1 (single isomer, unassigned; (+)) — lower, 56.9 °C
- CC(=O)N[C@H]1C(O)O[C@H](CO)[C@@H](F)[C@@H]1O (some centres undefined) — lower, 180 °C
- CC(C)Sc1cc2c3cc(SC(C)C)c(SC(C)C)cc3c3cc(SC(C)C)c(SC(C)C)cc3c2cc1SC(C)C — lower, 165 to 168 °C
- CCn1c(=O)ccn(-c2ccc(N3CCN(c4ccc(OC)cc4)CC3)cc2)c1=O — lower, 210 °C
- CCOC(=O)CNc1c(Br)cc(Br)cc1Br — lower, 81 to 82 °C
- CC1SC(=O)NN=C1c1ccc2c(c1)C(C)(C)C(=O)N2C(=O)Oc1ccccc1 (centres undefined) — higher, 248 °C
- CC1(C)C(C#CC(=O)OCC2CC2)C1C(=O)OC(C#N)c1cccc(Oc2ccccc2)c1 (centres undefined) — lower, 72 °C
- COC(=O)C1=C(NC(=O)Nc2ccccc2)CSC1 — lower, 182 to 184 °C
- Cc1nc(N2CCN(CCC3CC3)C2=O)sc1-c1cc[nH]n1 — lower, 147 to 149 °C
- C#Cc1ccc2c(c1)-c1c3c(c4c([nH]c5ccccc54)c1C2)C(=O)NC3 — higher, > 300 °C
- CCCC(O)C1(C)OC(C)=C(O)C1=O (centres undefined) — lower, 103 to 104 °C
- CC(CN1CCn2c(c(-c3ccccc3)c3cc(Cl)ccc32)C1=O)N(C)C (centres undefined) — lower, 151 to 152 °C
- O=c1c2c(cnn1Cc1ccccc1)C(Cc1ccccc1)NCCO2 (centres undefined) — lower, 70 °C
- Cc1ccc2cccc(OCc3c(Cl)ccc(N(C)C(=O)CNC(=O)CN4CCN(c5ccc([N+](=O)[O-])cc5)CC4)c3Cl)c2n1 — lower, 178 to 181 °C
- CCCCNC(=O)Oc1ccc(Oc2ccc(C(C)(C)C)cc2)cc1 — lower, 78 to 80 °C
- O=C(c1cc(-c2ccccc2)c(=O)n2c1-c1ccccc1C2)N1CC(O)C1 — not separable, 238 to 242 °C
- COC(=O)c1ccc(Cn2c(=O)c(C)c3sc(C(=O)NCc4ccc(F)cc4)cn3c2=O)cc1Cl — lower, 176 to 178 °C
- CCCCCC(=O)n1nc(-c2cc(C(C)(C)C)c(O)c(C(C)(C)C)c2)c2cccnc21 — lower, 112 to 114 °C
- CN(C)c1cc(OC(F)(F)F)cc2sc(N)nc12 — lower, 184 °C
- CCS(=O)(=O)CCC(=O)NNC(=O)N1Cc2ccccc2Oc2ccc(OC)cc21 — lower, 187 to 190 °C
- FCc1cccc(C#CCCc2nc3ccccc3s2)n1 — lower, 74 to 76 °C
- Cc1c(C#N)ccc(N)c1C#N — lower, 209 to 210 °C
- O=C(O)COc1cc(C(=O)O)ccc1NC(=O)NC(=O)c1ccc(F)cc1Cl — higher, 279 to 281 °C
- NC(=O)C(NCCc1cccs1)c1ccccc1Cl (centres undefined) — lower, 90 to 92 °C
- COCCn1nc2c(N)nc3ccccc3c2c1CC(C)(C)C#N — lower, 206 to 208 °C
- N#Cc1cnn2cccc2c1NC1(c2ccc(Cl)cc2Cl)CC1 — lower, 208 °C
- Cn1cc2c(nc(NC(=O)Nc3ccc(CC(=O)NCCCOCCOCCOCCCNC(=O)OC(C)(C)C)cc3)n3nc(-c4ccco4)nc23)n1 — lower, 151 to 158 °C
- COC(=O)c1ccc(OCCNC(=O)c2ccc(C(C)C)cc2)cc1 — lower, 89 to 91 °C
- CC1Nc2ccc(-c3cccc(Cl)c3)cc2C(C)(C)O1 (centres undefined) — lower, 144 to 146 °C
- Cc1ccc(CC(CNC(=S)NC(C)c2ccc(NS(C)(=O)=O)c(F)c2)COC(=O)C(C)(C)C)cc1C (centres undefined) — lower, 73 °C
